Legend:
A375 = assay: Cancer cell growth inhibition, A375; format: cell-based, human; conditions: A375, Melanoma, 72 h treatment
Procedure: (§1) Cell culture-based assays were used to evaluate the ability of compounds of the invention to inhibit cancer cell growth inhibition.
(§2) Cells were obtained from the American Type Culture Collection (ATCC). Cells were cultured at 37° C. with 5% CO2 in the appropriate growth medium (see table below), and harvested respectively during the logarithmic growth period and counted with hemocytometer. The cell viability was over 98% by trypan blue exclusion. Cell concentrations were adjusted between 5×10^4 and 2×10^5 cells/ml with respective medium.
(§3) Stock solutions of test compounds and positive drugs Doxorubicin (Zhejiang, Haizheng, China), Paclitaxel (Beijing, Xiehe, China), Vincristin (Shenzhen Wanle, China), 5-FU (Tianjin jinyaoanjisuan, China), Irinotecan (Jiangsu Hengrui, China) and Cisplatin Nanjing zhiyao, China) were prepared in dimethyl sulphoxide (DMSO) or PBS at 20 mM.
(§4) All treatments were performed in triplicate. 10 μl drug solution was added to each well and incubated for 72 hours. At the end of the incubation, 20 μl of the freshly prepared MTS/PMS mixture solution was added to each well and incubated for 4 hours at 37° C. in a humidified, 5% CO2 atmosphere. Absorbance was read at 490 nm using SpectraMAX Plus microplate spectrophotometer. […] In order to calculate IC50, a dose-responsive curve was fitted using nonlinear regression model with a sigmoidal dose response.

BGC823 = assay: Cancer cell growth inhibition, BGC823; format: cell-based, human; conditions: BGC823, Gastric Cancer, 72 h treatment
Procedure: as §1, §2, §3, §4

K562 = assay: Cancer cell growth inhibition, K562; format: cell-based, human; conditions: K562, CML, 72 h treatment
Procedure: as §1
as §2, with “The cell viability was over 98% by trypan blue exclusion.” left out
as §3, §4

RPMI-8226 = assay: Cancer cell growth inhibition, RPMI-8226; format: cell-based, human; conditions: RPMI-8226, Orthotopic Multiple Myeloma, 72 h treatment
Procedure: as §1, §2, §3, §4

OVCAR3 = assay: Cancer cell growth inhibition, OVCAR3; format: cell-based, human; conditions: OVCAR3, Ovarian Cancer, 72 h treatment
Procedure: as §1, §2, §3, §4

LoVo = assay: Cancer cell growth inhibition, LoVo; format: cell-based, human; conditions: Colorectal Cancer, 72 h treatment
Procedure: as §1, §2, §3, §4

SW620 = assay: Cancer cell growth inhibition, SW620; format: cell-based, human; conditions: SW620, Colorectal Cancer, 72 h treatment
Procedure: as §1, §2, §3, §4

SK-MES-1 = assay: Cancer cell growth inhibition, SK-MES-1; format: cell-based, human; conditions: SK-MES-1, Lung Cancer, 72 h treatment
Procedure: as §1, §2, §3, §4

Calu-6 = assay: Cancer cell growth inhibition, Calu-6; format: cell-based, human; conditions: Calu-6, Lung Cancer, 72 h treatment
Procedure: as §1, §2, §3, §4

DLD-1 = assay: Cancer cell growth inhibition, DLD-1; format: cell-based, human; conditions: DLD-1, Colorectal Cancer, 72 h treatment
Procedure: as §1, §2, §3, §4

MDA-MB-231 = assay: Cancer cell growth inhibition, MDA-MB-231; format: cell-based, human; conditions: MDA-MB-231, Breast Cancer, 72 h treatment
Procedure: as §1, §2, §3, §4

PC-3 = assay: Cancer cell growth inhibition, PC-3; format: cell-based, human; conditions: PC-3, Prostate Cancer, 72 h treatment
Procedure: as §1, §2, §3, §4

SW480 = assay: Cancer cell growth inhibition, SW480; format: cell-based, human; conditions: SW480, Colorectal Cancer, 72 h treatment
Procedure: as §1, §2, §3, §4

786-O = assay: Cancer cell growth inhibition, 786-O; format: cell-based, human; conditions: Kindney Cancer, 72 h treatment
Procedure: as §1, §2, §3, §4

DU145 = assay: Cancer cell growth inhibition, DU145; format: cell-based, human; conditions: DU145, Prostate Cancer, 72 h treatment
Procedure: as §1, §2, §3, §4

NCI-N87 = assay: Cancer cell growth inhibition, NCI-N87; format: cell-based, human; conditions: NCI-N87, Gastric Cancer, 72 h treatment
Procedure: as §1, §2, §3, §4

Hep3B = assay: Cancer cell growth inhibition, Hep3B; format: cell-based, human; conditions: Liver Cancer, 72 h treatment
Procedure: as §1, §2, §3, §4

A549 = assay: Cancer cell growth inhibition, A549; format: cell-based, human; conditions: A549, Lung Cancer, 72 h treatment
Procedure: as §1, §2, §3, §4

Bx-PC-3 = assay: Cancer cell growth inhibition, Bx-PC-3; format: cell-based, human; conditions: Bx-PC-3, Pancreatic Cancer, 72 h treatment
Procedure: as §1, §2, §3, §4

LNCaP = assay: Cancer cell growth inhibition, LNCaP; format: cell-based, human; conditions: Prostate Cancer, 72 h treatment
Procedure: as §1, §2, §3, §4

CNE2 = assay: Cancer cell growth inhibition, CNE2; format: cell-based, human; conditions: CNE2, Nasopharyngeal Cancer, 72 h treatment
Procedure: as §1, §2, §3, §4

NCI-H226 = assay: Cancer cell growth inhibition, NCI-H226; format: cell-based, human; conditions: NCI-H226, Lung Cancer, 72 h treatment
Procedure: as §1, §2, §3, §4

PANC-1 = assay: Cancer cell growth inhibition, PANC-1; format: cell-based, human; conditions: PANC-1, Pancreatic Cancer, 72 h treatment
Procedure: as §1, §2, §3, §4

SK-MEL-5 = assay: Cancer cell growth inhibition, SK-MEL-5; format: cell-based, human; conditions: SK-MEL-5, Melanoma, 72 h treatment
Procedure: as §1, §2, §3, §4

KB = assay: Cancer cell growth inhibition, KB; format: cell-based, human; conditions: Oral Cancer, 72 h treatment
Procedure: as §1, §2, §3, §4

MCF-7 = assay: Cancer cell growth inhibition, MCF-7; format: cell-based, human; conditions: MCF-7, Breast Cancer, 72 h treatment
Procedure: as §1, §2, §3, §4

SK-OV-3 = assay: Cancer cell growth inhibition, SK-OV-3; format: cell-based, human; conditions: SK-OV-3, Ovarian Cancer, 72 h treatment
Procedure: as §1, §2, §3, §4

SK-BR-3 = assay: Cancer cell growth inhibition, SK-BR-3; format: cell-based, human; conditions: SK-BR-3, Breast Cancer, 72 h treatment
Procedure: as §1, §2, §3, §4

MCG803 = assay: Cancer cell growth inhibition, MCG803; format: cell-based, human; conditions: MCG803, Gastric Cancer, 72 h treatment
Procedure: as §1, §2, §3, §4

NCI-H460 = assay: Cancer cell growth inhibition, NCI-H460; format: cell-based, human; conditions: NCI-H460, Lung Cancer, 72 h treatment
Procedure: as §1, §2, §3, §4

U87MG = assay: Cancer cell growth inhibition, U87MG; format: cell-based, human; conditions: Glioblastoma, 72 h treatment
Procedure: as §1, §2, §3, §4

HT-29 = assay: Cancer cell growth inhibition, HT-29; format: cell-based, human; conditions: HT-29, Colorectal Cancer, 72 h treatment
Procedure: as §1, §2, §3, §4

Human HDAC4 = Human HDAC4 (Homo sapiens (Human), UniProt P56524); assay: HDAC4 fluorogenic peptide deacetylation assay; format: biochemical; conditions: human HDAC4, 50 μM substrate, 30° C., 2 h; read-out: IC50 (nM) of enzyme activity HDAC4
Sequence of Human HDAC4 (P56524 627-1084 limits assumed): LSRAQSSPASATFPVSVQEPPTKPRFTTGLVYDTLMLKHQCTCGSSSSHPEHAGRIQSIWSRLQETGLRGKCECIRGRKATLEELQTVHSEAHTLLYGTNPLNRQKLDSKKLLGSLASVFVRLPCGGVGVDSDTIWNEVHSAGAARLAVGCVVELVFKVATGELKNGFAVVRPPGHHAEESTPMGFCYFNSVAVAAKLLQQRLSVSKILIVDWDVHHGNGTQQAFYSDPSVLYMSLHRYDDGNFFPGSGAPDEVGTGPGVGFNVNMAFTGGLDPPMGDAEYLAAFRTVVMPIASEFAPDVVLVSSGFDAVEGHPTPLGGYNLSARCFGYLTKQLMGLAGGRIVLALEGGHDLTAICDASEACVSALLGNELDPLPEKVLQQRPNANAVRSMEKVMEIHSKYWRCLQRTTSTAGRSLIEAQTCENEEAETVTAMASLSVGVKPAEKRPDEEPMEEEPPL

Human HDAC5 = Human HDAC5 (Homo sapiens (Human), UniProt Q9UQL6); assay: HDAC5 fluorogenic peptide deacetylation assay; format: biochemical; conditions: human HDAC5, 50 μM substrate, 30° C., 2 h; read-out: IC50 (nM) of enzyme activity HDAC5
Sequence of Human HDAC5 (Q9UQL6 other isoform, or with tags, fused parts or gaps): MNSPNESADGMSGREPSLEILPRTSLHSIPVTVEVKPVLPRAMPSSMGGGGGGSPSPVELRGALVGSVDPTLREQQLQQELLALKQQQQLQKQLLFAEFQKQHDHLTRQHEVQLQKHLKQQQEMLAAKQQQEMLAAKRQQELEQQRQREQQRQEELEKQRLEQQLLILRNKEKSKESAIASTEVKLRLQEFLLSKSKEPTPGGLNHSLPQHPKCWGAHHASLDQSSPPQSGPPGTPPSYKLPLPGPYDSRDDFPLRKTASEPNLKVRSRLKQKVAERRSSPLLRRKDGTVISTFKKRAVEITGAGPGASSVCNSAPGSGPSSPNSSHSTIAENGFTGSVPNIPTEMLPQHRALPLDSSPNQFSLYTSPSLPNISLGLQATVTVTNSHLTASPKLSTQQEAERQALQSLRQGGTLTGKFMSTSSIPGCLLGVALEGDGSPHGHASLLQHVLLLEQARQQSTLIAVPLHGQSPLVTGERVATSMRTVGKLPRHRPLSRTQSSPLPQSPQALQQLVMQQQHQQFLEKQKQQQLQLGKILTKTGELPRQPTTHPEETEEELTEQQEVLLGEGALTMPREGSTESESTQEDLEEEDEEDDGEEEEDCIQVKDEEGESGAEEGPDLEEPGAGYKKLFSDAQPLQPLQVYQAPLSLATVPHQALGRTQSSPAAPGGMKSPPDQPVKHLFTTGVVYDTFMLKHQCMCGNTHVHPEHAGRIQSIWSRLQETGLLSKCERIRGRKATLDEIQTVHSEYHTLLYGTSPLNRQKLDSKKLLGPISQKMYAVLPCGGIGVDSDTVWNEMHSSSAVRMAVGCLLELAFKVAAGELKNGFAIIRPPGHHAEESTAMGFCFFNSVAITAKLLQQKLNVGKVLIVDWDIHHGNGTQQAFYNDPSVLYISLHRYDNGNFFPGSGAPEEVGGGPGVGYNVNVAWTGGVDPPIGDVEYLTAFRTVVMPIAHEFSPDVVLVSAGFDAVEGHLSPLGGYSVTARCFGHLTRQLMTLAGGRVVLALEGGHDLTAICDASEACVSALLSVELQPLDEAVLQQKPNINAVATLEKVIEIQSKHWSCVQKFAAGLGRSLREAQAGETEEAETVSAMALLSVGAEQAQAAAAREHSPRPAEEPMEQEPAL

Human HDAC11 = Human HDAC11 (Homo sapiens (Human), UniProt Q96DB2); assay: HDAC11 fluorogenic peptide deacetylation assay; format: biochemical; conditions: human HDAC11, 50 μM substrate, 30° C., 2 h; read-out: IC50 (nM) of enzyme activity HDAC11
Human HDAC7 = Human HDAC7 (Homo sapiens (Human), UniProt Q8WUI4); assay: HDAC7 fluorogenic peptide deacetylation assay; format: biochemical; conditions: human HDAC7, 50 μM substrate, 30° C., 2 h; read-out: IC50 (nM) of enzyme activity HDAC7
Human HDAC10 = Human HDAC10 (Homo sapiens (Human), UniProt Q969S8); assay: HDAC10 fluorogenic peptide deacetylation assay; format: biochemical; conditions: human HDAC10, 50 μM substrate, 30° C., 2 h; read-out: IC50 (nM) of enzyme activity HDAC10
Sequence of Human HDAC10 (Q969S8 1-631): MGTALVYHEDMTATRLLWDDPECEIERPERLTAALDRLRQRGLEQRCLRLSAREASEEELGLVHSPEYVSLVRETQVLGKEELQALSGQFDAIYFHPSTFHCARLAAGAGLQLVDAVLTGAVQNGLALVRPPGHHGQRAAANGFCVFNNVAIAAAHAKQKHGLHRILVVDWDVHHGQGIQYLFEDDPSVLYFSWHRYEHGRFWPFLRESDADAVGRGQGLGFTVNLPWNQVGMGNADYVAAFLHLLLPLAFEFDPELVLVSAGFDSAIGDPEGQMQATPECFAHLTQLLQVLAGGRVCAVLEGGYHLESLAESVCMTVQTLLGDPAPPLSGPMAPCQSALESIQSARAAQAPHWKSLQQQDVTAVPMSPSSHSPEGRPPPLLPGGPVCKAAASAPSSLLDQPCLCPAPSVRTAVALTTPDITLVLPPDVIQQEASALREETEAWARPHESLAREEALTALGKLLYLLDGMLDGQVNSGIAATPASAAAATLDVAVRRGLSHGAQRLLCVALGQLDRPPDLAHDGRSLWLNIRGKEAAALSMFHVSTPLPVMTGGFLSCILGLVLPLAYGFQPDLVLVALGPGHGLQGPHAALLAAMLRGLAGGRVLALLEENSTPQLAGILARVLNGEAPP

Human HDAC3/NcoR2 = Human HDAC3/NcoR2 (Homo sapiens (Human), UniProt O15379); assay: HDAC3 fluorogenic peptide deacetylation assay; format: biochemical; conditions: human HDAC3/NcoR2, 50 μM substrate, 30° C., 2 h; read-out: IC50 (nM) of enzyme activity HDAC3
[1] = tested on: Nuclear Extract from HeLa Cells; assay: HeLa Nuclear Extract HDAC assay; format: biochemical, human; conditions: 50 μM substrate, 30° C., 2 h, read-out: IC50 (nM) of enzyme activity HeLa
Human HDAC8 = Human HDAC8 (Homo sapiens (Human), UniProt Q9BY41); assay: HDAC8 fluorogenic peptide deacetylation assay; format: biochemical; conditions: human HDAC8, 50 μM substrate, 30° C., 2 h; read-out: IC50 (nM) of enzyme activity HDAC8
Sequence of Human HDAC8 (Q9BY41 whole entry): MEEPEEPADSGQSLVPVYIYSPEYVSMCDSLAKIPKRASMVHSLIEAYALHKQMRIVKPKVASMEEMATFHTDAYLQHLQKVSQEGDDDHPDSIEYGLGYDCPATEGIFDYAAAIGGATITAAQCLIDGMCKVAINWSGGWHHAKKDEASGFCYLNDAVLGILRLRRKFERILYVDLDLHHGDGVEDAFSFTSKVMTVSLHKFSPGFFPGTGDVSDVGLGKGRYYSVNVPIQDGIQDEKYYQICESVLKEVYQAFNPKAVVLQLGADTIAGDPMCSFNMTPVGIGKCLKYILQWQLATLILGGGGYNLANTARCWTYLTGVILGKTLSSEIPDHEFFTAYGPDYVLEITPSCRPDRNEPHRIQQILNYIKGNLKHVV

Human HDAC2 = Human HDAC2 (Homo sapiens (Human), UniProt Q92769); assay: HDAC2 fluorogenic peptide deacetylation assay; format: biochemical; conditions: human HDAC2, 50 μM substrate, 30° C., 2 h; read-out: IC50 (nM) of enzyme activity HDAC2
Sequence of Human HDAC2 (Q92769 whole entry): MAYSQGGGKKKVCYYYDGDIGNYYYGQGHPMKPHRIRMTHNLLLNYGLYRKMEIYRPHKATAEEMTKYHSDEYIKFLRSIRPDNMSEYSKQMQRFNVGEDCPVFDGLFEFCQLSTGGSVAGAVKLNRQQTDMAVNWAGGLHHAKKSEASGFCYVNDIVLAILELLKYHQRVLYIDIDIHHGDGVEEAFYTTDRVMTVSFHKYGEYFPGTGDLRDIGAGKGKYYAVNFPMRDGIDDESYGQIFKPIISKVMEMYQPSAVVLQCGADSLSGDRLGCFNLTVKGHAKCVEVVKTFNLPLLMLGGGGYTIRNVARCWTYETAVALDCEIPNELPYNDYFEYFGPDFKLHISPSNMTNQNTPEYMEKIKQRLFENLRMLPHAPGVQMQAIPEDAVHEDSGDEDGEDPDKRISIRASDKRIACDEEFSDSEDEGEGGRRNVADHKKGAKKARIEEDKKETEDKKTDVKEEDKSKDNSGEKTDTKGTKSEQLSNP

Human HDAC9 = Human HDAC9 (Homo sapiens (Human), UniProt Q9UKV0); assay: HDAC9 fluorogenic peptide deacetylation assay; format: biochemical; conditions: human HDAC9, 50 μM substrate, 30° C., 2 h; read-out: IC50 (nM) of enzyme activity HDAC9
Sequence of Human HDAC9 (Q9UKV0 other isoform, or with tags, fused parts or gaps): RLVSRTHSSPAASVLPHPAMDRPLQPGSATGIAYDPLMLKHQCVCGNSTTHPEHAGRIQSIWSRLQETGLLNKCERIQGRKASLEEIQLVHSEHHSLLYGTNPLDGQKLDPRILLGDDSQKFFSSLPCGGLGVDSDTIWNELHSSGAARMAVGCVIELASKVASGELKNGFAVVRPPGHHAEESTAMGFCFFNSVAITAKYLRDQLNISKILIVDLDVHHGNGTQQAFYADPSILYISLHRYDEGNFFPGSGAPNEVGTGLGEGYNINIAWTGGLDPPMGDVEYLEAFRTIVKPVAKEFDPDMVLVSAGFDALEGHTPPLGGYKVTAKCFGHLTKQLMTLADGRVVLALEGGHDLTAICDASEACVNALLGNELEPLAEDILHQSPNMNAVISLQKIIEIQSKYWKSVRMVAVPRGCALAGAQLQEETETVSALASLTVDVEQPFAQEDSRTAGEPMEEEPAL

Human HDAC6 = Human HDAC6 (Homo sapiens (Human), UniProt Q9UBN7); assay: HDAC6 fluorogenic peptide deacetylation assay; format: biochemical; conditions: human HDAC6, 50 μM substrate, 30° C., 2 h; read-out: IC50 (nM) of enzyme activity HDAC6
Sequence of Human HDAC6 (Q9UBN7 whole entry): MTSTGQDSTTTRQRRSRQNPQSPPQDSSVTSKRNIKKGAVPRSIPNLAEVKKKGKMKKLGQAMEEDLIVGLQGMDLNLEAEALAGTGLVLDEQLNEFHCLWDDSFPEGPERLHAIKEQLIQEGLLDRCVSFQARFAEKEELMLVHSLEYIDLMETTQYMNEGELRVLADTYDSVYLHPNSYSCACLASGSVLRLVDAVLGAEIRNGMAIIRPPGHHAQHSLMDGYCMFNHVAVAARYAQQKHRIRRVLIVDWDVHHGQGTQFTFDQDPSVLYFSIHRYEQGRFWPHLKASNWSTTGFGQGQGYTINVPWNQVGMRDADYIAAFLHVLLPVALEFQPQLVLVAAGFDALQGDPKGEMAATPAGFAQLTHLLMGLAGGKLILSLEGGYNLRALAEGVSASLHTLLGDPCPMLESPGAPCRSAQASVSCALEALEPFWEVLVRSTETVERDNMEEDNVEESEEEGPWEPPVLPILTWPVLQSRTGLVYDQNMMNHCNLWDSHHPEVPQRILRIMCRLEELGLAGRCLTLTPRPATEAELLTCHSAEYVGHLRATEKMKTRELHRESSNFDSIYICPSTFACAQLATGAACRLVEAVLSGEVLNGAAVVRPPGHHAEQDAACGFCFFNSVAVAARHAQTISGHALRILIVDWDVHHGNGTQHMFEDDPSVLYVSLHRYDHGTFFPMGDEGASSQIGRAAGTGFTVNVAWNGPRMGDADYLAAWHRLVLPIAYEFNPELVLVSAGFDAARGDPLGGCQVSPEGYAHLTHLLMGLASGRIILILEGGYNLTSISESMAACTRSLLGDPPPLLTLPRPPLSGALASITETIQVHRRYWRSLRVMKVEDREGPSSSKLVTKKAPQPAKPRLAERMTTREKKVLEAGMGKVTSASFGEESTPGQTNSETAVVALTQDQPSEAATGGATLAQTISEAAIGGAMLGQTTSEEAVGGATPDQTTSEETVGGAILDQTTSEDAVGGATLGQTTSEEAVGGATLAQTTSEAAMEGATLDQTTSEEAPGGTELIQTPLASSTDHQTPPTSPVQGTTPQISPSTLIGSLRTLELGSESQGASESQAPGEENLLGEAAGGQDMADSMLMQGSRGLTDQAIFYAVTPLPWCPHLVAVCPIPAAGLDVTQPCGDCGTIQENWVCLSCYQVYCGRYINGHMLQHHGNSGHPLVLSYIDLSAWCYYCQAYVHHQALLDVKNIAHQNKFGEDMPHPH

Human HDAC1 = Human HDAC1 (Homo sapiens (Human), UniProt Q13547); assay: HDAC1 fluorogenic peptide deacetylation assay; format: biochemical; conditions: human HDAC1, 50 μM substrate, 30° C., 2 h; read-out: IC50 (nM) of enzyme activity HDAC1

N.N.[Cl][Pt][Cl] [Cisplatin, reference compound]
IC50 (A375): 6.55 µM | IC50 (BGC823): 1.29 µM | IC50 (K562): 13.2 µM | IC50 (RPMI-8226): 1.06 µM | IC50 (OVCAR3): 11.7 µM | IC50 (LoVo): 4.65 µM | IC50 (SW620): 84.3 µM | IC50 (SK-MES-1): 5.12 µM | IC50 (Calu-6): 1.61 µM | IC50 (DLD-1): 18.3 µM | IC50 (MDA-MB-231): 99.8 µM | IC50 (PC-3): 11.5 µM | IC50 (SW480): 10.8 µM | IC50 (786-O): 4.32 µM | IC50 (DU145): 4.01 µM | IC50 (NCI-N87): 8.24 µM | IC50 (Hep3B): 3.96 µM | IC50 (A549): 28.4 µM | IC50 (Bx-PC-3): 6.12 µM | IC50 (LNCaP): 8.92 µM | IC50 (CNE2): 11.8 µM | IC50 (NCI-H226): 9.5 µM | IC50 (PANC-1): 24.8 µM | IC50 (SK-MEL-5): 2.87 µM | IC50 (KB): 3.97 µM | IC50 (MCF-7): 7.75 µM | IC50 (SK-OV-3): 4.42 µM | IC50 (SK-BR-3): 1.74 µM | IC50 (MCG803): 11.4 µM | IC50 (NCI-H460): 6.93 µM | IC50 (U87MG): 7.61 µM | IC50 (HT-29): 14.9 µM

Nc1ccccc1NC(=O)c1ccc(CNC(=O)c2[nH]c(-c3ccc(O)cc3)cc2-c2ccoc2)cc1 [Example 37, N-(4-{[(2-aminophenyl)amino)carbonyl]benzyl}-3-(3-furyl)-5-(4-hydroxyphenyl)-1H-pyrrole-2-carboxamide]
IC50 (Human HDAC4): > 5000 nM | IC50 (Human HDAC5): 8640 nM | IC50 (Human HDAC11): 5660 nM | IC50 (Human HDAC7): > 5000 nM | IC50 (Human HDAC10): 8550 nM | IC50 (Human HDAC3/NcoR2): 5830 nM | IC50 [1]: 1080 nM | IC50 (Human HDAC8): > 5000 nM | IC50 (Human HDAC2): 1840 nM | IC50 (Human HDAC9): > 5000 nM | IC50 (Human HDAC6): 2890 nM | IC50 (Human HDAC1): 332 nM

From patent publication US8685992B2, “Histone deacetylase inhibitors based simultaneously on trisubstituted 1H-pyrroles and aromatic and heteroaromatic spacers” (Universidad del País Vasco, priority 2009, dated 2014)
